Measured values as given in patent US10828317B2, “Method of treating bacterial infections” (priority 2016, dated 2020).
Read-outs that look alike come from different tables or passages of the source.

How the values were obtained:
[1] = test system: A. pittii or A. nosocomialis EN0180; assay: MIC; type: cell-based, Acinetobacter pittii or nosocomialis; details: combination didanosine+trimethoprim+uridine, Table 10; read-out: MIC
[2] = test system: S. typhimurium EN0466; assay: MIC; type: cell-based; details: Salmonella enterica, combination didanosine+trimethoprim+uridine, Table 10
[3] = test system: K. pneumoniae EN006; assay: MIC, WT (EN006 = EN0006, ATCC 13883); type: cell-based, Klebsiella pneumoniae
[4] = test system: P. aeruginosa EN0460; assay: MIC; type: cell-based, Pseudomonas aeruginosa; details: Pseudomonas aeruginosa, EN0460, combination didanosine+trimethoprim+uridine, Table 10; read-out: MIC
[5] = test system: K. pneumoniae EN0463; assay: MIC; type: cell-based, Klebsiella pneumoniae; details: Klebsiella pneumoniae, EN0463, combination didanosine+trimethoprim+uridine, Table 10; read-out: MIC
[6] = test system: E. aerogenes EN0461; assay: MIC; type: cell-based, Enterobacter aerogenes; details: Klebsiella aerogenes, EN0461, combination didanosine+trimethoprim+uridine, Table 10; read-out: MIC
[7] = test system: E. coli EN012; assay: MIC, WT; type: cell-based, Escherichia coli; details: Escherichia coli, EN012, combination didanosine+trimethoprim+uridine, Table 10; read-out: MIC
[8] = test system: E. coli EN0136; assay: MIC, ESBL (CTX-M-2); type: cell-based; details: Escherichia coli, EN0136, combination didanosine+trimethoprim+uridine, Table 20; read-out: MIC
[9] = test system: A. baumannii EN016; assay: MIC, WT; type: cell-based, Acinetobacter baumannii; details: Acinetobacter baumannii, EN016, combination didanosine+trimethoprim+uridine, Table 10; read-out: MIC
[10] = test system: P. aeruginosa EN0422; assay: MIC; type: cell-based, Pseudomonas aeruginosa; details: Pseudomonas aeruginosa, EN0422, combination didanosine+trimethoprim+uridine, Table 10; read-out: MIC
[11] = test system: Citrobacter sp. EN0465; assay: MIC; type: cell-based; details: Citrobacter, SP.EN0465, combination didanosine+trimethoprim+uridine, Table 10; read-out: MIC
[12] = test system: P. aeruginosa EN0459; assay: MIC; type: cell-based, Pseudomonas aeruginosa; details: Pseudomonas aeruginosa, EN0459, combination didanosine+trimethoprim+uridine, Table 10; read-out: MIC
[13] = test system: P. aeruginosa EN004; assay: MIC, WT (EN004 = EN0004); type: cell-based, Pseudomonas aeruginosa
[14] = test system: K. oxytoca EN0392; assay: MIC; type: cell-based; details: Klebsiella oxytoca, EN0392, combination didanosine+trimethoprim+uridine, Table 10
[15] = test system: A. baumannii EN007; assay: MIC, WT (EN007 = EN0007); type: cell-based, Acinetobacter baumannii
[16] = test system: E. coli EN001; assay: MIC, WT (EN001 = EN0001, ATCC 25922); type: cell-based, Escherichia coli; details: combination didanosine+trimethoprim+uridine, Table 20
[17] = test system: S. aureus EN008; assay: MIC, Gram-positive control; type: cell-based, Staphylococcus aureus; details: Staphylococcus aureus, EN008, combination didanosine+trimethoprim+uridine, Table 10; read-out: MIC
[18] = test system: E. coli EN0235; assay: microbe, parasite or virus in culture; type: cell-based; details: Escherichia coli, EN0235, combination didanosine+trimethoprim+uridine, Table 20
[19] = test system: P. mirabilis ST19 EN0445; assay: MIC; type: cell-based, Proteus mirabilis; details: Proteus mirabilis, ST19EN0445, combination didanosine+trimethoprim+uridine, Table 10; read-out: MIC
[20] = test system: S. epidermidis EN0456; assay: MIC; type: cell-based, Staphylococcus epidermidis; details: Staphylococcus epidermidis, EN0456, combination didanosine+trimethoprim+uridine, Table 10; read-out: MIC
[21] = test system: P. aeruginosa EN014; assay: MIC, WT; type: cell-based, Pseudomonas aeruginosa; details: Pseudomonas aeruginosa, EN014, combination didanosine+trimethoprim+uridine, Table 10; read-out: MIC
[22] = test system: S. aureus V55; assay: MIC; type: cell-based; details: Staphylococcus aureus, Mupirocin resistant isolate, read-out: MIC (resistance pattern)
[23] = test system: S. aureus V308; assay: MIC; type: cell-based; details: Staphylococcus aureus, V308; Mupirocin resistant isolate; read-out: MIC (resistance pattern)
[24] = test system: S. aureus V321; assay: MIC; type: cell-based; details: Staphylococcus aureus, Mupirocin resistant isolate, read-out: MIC (resistance pattern)
[25] = test system: S. aureus V86; assay: MIC; type: cell-based; details: Staphylococcus aureus, V86; Mupirocin resistant isolate; read-out: MIC (resistance pattern)
[26] = combination didanosine+trimethoprim+uridine, Table 20

Compound: O=c1[nH]cnc2c1ncn2[C@H]1CC[C@@H](CO)O1 [Didanosine, didanosine]
- MIC [1]: > 4 µg/mL
- MIC [2]: 0.25 µg/mL
- MIC ([3]; Klebsiella pneumoniae, EN006, combination didanosine+trimethoprim+uridine, Table 10, read-out: MIC): 0.5 µg/mL
- MIC [3, 26]: 0.5 µg/mL
- MIC [4]: > 4 µg/mL
- MIC [5]: 0.25 µg/mL
- MIC [6]: 0.5 µg/mL
- MIC [7]: 0.064 µg/mL
- MIC [8]: > 4 µg/mL
- MIC [9]: > 4 µg/mL
- MIC [10]: > 4 µg/mL
- MIC [11]: > 4 µg/mL
- MIC [12]: > 4 µg/mL
- MIC ([13]; Pseudomonas aeruginosa, EN004, combination didanosine+trimethoprim+uridine, Table 10, read-out: MIC): > 4 µg/mL
- MIC [13, 26]: >4 µg/mL
- MIC [14]: 0.25 µg/mL
- MIC ([15]; Acinetobacter baumannii, EN007, combination didanosine+trimethoprim+uridine, Table 10, read-out: MIC): > 4 µg/mL
- MIC [15, 26]: >4 µg/mL
- MIC [16]: 0.25 µg/mL
- MIC [17]: 0.5 µg/mL
- MIC [18]: 0.125 µg/mL
- MIC [19]: 1 µg/mL
- MIC [20]: 0.064 µg/mL
- MIC [21]: > 4 µg/mL

Compound: C/C(=C\C(=O)OCCCCCCCCC(=O)O)C[C@@H]1OC[C@H](C[C@@H]2O[C@H]2[C@@H](C)[C@H](C)O)[C@@H](O)[C@H]1O [Mupirocin]
- MIC [22]: > 256 µg/mL
- MIC [23]: > 256 µg/mL
- MIC [24]: > 256 µg/mL
- MIC [25]: > 256 µg/mL
